Patent US10307418B2, “Azole pharmaceutical formulations for parenteral administration and methods for preparing and using the same as treatment of diseases sensitive to azole compounds” (Platform Brightworks Two, Ltd., priority 2010, dated 2019)
≈ marks a conversion by molar mass, not a printed value. Read-outs that look alike come from different tables or passages of the source.

Experiments:
[1] = cited from earlier work
Candida parapsilosis = assay: Yeast susceptibility test, MIC (CLSI standard); assay type: cell-based; settings: tested range 38 μg/mL to 0.03 μg/mL, read out at 24 hours, average of three experiments
Method: (§1) Briefly, susceptibility tests were set-up using a standardized methodology (CLSI […] standard). Drugs were diluted into RPMI-Mops medium (Yeast One Broth (Sensititer, product Y3462, Trek Diagnostic Systems, Cleveland, Ohio) Sensititer Lot number 151416SA-expiration date 2011-01). Two different strains of yeast were tested, the standardized evaluation/read out was performed at 24 hours after the start of each culture. The tests were repeated twice and all MIC (minimum inhibitory concentration) values are reported as an average of the three experiments.

[2] = tested on: Candida cruzei (ATCC strain 6258); assay: Yeast susceptibility test, MIC (CLSI standard); assay type: cell-based; settings: tested range 38 μg/mL to 0.03 μg/mL, read out at 24 hours, average of three experiments
Method: as §1

[3] = tested on: Aspergillus fumigatus (ATCC strain 90906); assay: Mold susceptibility test, MIC (CLSI M38A); assay type: cell-based
Method: Two hyaline molds were tested with a standard read out at 48 hrs:
Tested drug range: 75 μg/mL to 0.07 μg/mL
To further determine the antifungal activity of the compounds in the new formulation systems we investigated the efficacy of the various agents against additional strains of mucor and Aspergillus (9/-16-9/20/2010) (The Rhizomucor was a clinical isolate from a patient isolate) and the Aspergillus fumigatus (ATCC strain 90906) used was a repeat from the previously described experiment. Again, the susceptibility tests were set-up using the standardized test method (CLSI M38A). The used drugs were provided in the described H3 final use-formulation that has been previously described. All drugs were diluted in RPMI-Mops medium (YeastOne, Sensititer Lot 151416SA, expiration date January 2011).
As before two different molds were tested with a standard read out at 48 hr: • Drug dilution range 75 μg/mL to 0.07 μg/mL. • Aspergillus fumigatus (ATCC strain 90906) Zygomycete (Clinical Lab isolate, MDACC) […]

[4] = Maximum solubility of ITZA and azole analogues in solvents (HPLC); assay type: physicochemical; settings: for solubility thermodynamic at 1 h: within 1 hour at RT, read-out: Maximum equilibrium solubility
Method: ITZA and its analogues were dissolved in various solvents incubated at 37° C. for 30 minutes, cooled down to room temperature, centrifuged at 14,000 rpm for 1 min. The supernatant was analyzed using HPLC to determine the maximum solubility of ITZA and its azole analogues.
In a first step the maximum ITZA solubility in various single solvents was determined. To this end, ITZA and its analogs were dissolved in various solvents, incubated at 37° C. for 30 minutes, cooled down to room temperature, centrifuged at 14,000 rpm for 1 min. The supernatant was analyzed using HPLC to determine the maximum solubility of the respective agent.
The solubility of ITZA was determined in several individual vehicles. Briefly, a known amount of ITZA drug, formulated as a powder (Sigma Inc., St Louis, Mo.), was equilibrated in the respective solvent at RT over 1-4 hours. An aliquot was removed, filtered, and prepared for HPLC to determine maximum solubility at room temperature. Based on the ITZA solubility in each vehicle, different solvents were mixed according to the cosolvency principle in an attempt to arrive at an enhanced stable solubility. […] The stock formulation was then diluted with a final diluent, i.e. NS or D5W or DlOW, to yield a stable use-formulation. The desired range of the final use-formulation was between 1 and 5 mg/mL, as it would result in a final volume that could be safely and conveniently infused intravascularly.
An excess of ITZA as a powder was added to a multitude of chemical solvents (Table 1) at RT. Each mixture was intermittently vortexed, placed in a dark environment and checked visually for up to 4 hours for evidence of solubilization. Following centrifugation to remove solid particles, small samples were withdrawn after consecutive time intervals and the ITZA concentration was determined by HPLC as described.

[5] = Stability of ITZA/POSA in solvent vehicles (HPLC); assay type: physicochemical
Method: The ITZA in solvent H3 was incubated in sealed tubes. […] For both short-term and long-term stability studies, triplicate samples at various time points were analyzed quantitatively by HPLC after appropriate dilutions. In the next step the stability of ITZA (at approximately 4 mg/mL) in a preferred composite solvent at a clinically relevant stock concentration by itself, and after dilution with a similar volume of a clinically acceptable infusion fluid, was determined at room temperature. ITZA was dissolved at a final stock concentration of 2-6 mg/mL in benzyl alcohol with acidified EtOH/PEG-400 (prototype ITZA stock solvent vehicle) and incubated at RT and at 40° C. The resulting ITZA concentrations were measured by HPLC in samples taken immediately after solubilization, then hourly for 8 hours, and then at gradually increasing time intervals for up to several days (weeks), depending on the initial rate of solubilization/degradation in the respective solvent system.

[6] = Plasma pharmacology after IV injection in mice; settings: IV dose of 5 mg/kg
Method: Swiss Webster mice were used for pharmacokinetic studies of ITZA and its analogs. The dilation of the vein was accomplished by warming up the mice using a heat lamp. […] Mice were allowed to recover and blood samples were obtained through cardiac puncture under general anesthesia with Isoflurane/oxygen by vaporizer at various time points. Plasma was obtained by centrifugation of blood sample at 3,200 rpm for 5 min. at 4° C. Plasma proteins were precipitated by adding acetonitrile (twice the volume of plasma). The mixture was vortexed for 30 seconds and centrifuged for 5 min. at 14,000 rpm. The supernatant was saved and was injected into the HPLC to determine the respective drug concentrations.
Unless specified, the analogous experiments were performed using POSA as an alternative to ITZA; Swiss Webster mice of both sexes with a body weight of 25-30 g were used for the in vivo pharmacology experiments (Harlan-Sprague-Dawley, Houston, Tex.). The animals were allowed a minimum of 7 days after arrival to accommodate to the new environment and allowed free access to commercial feed and tap water prior to and during the experimentation period. The animals were housed in an Association for the Assessment and Accreditation of Laboratory Animal Care International (AAALAC)-approved facility that meets the requirements of the USDA, NIH, and DHHS.
The ITZA dose of 5 mg/kg BW was determined to be a suitable test dose that could be administered to the mice as a slow (3-4 min) IV bolus injection without requiring sedation, but could be performed with only minimal physical restraint of the animals in a standard funnel-type cage.
The ITZA was formulated in the H3 solvent system described above as the preferred solvent to a stock concentration of 4-5 mg/mL and then diluted with NS (ratio 1:1) so the intended dose (5.0 mg/kg BW) could be injected in a tail vein in a total volume of approximately 100 μL. […] No sedative premedication was used for the mice in this experiment to avoid the possible induction of microsomal liver enzymes that could modify ITZA metabolism. Thus, the animals were unanesthetized, being only physically restrained during and immediately following the drug injection.
Blood samples (0.5-1.0 mL) were drawn through cardiac puncture into heparinized tubes at selected time points prior to the drug infusion (“blank”), and from 5 min to 1 hour after drug injection for determination of ITZA concentrations, and for 5 min to about 7 hrs in the POSA experiment. The mice were exposed to 2% -4% isoflurane for general anesthesia. Blood samples were obtained through cardiac puncture and immediately deposited in heparinized microcentrifuge tubes.

CCC(C)n1ncn(-c2ccc(N3CCN(c4ccc(OCC5COC(Cn6cncn6)(c6ccc(Cl)cc6Cl)O5)cc4)CC3)cc2)c1=O (stereo not drawn) [ITZA, itraconazole]
known plasma half-life ([1]; literature (Ref 24, 32, 42, 45)): 10 to 11 h
bioavailability ([1]; oral preparations, literature): approximately 50%
MIC (Candida parapsilosis): 0.03 µg/mL (≈ 4.25e-05 mM)
MIC (Candida parapsilosis; listed as ITZA*): 0.07 µg/mL (≈ 9.92e-05 mM)
MIC [2]: 0.07 µg/mL (≈ 9.92e-05 mM)
MIC ([2]; listed as ITZA*): 0.15 µg/mL (≈ 0.000213 mM)
MIC ([3]; Aspergillus fumigatus, ATCC90906, 48 h, tested range 75 μg/mL to 0.07 μg/mL, read out at 48 hrs, first experiment, read-out: MIC): 1.2 µg/mL (≈ 0.0017 mM)
MIC ([3]; extended mold testing (repeat), H3 final use-formulation, range 75 μg/mL to 0.07 μg/mL, 48 hr): 1.2 µg/mL (≈ 0.0017 mM)
MIC ([3]; extended mold testing (repeat), H3 final use-formulation, range 75 μg/mL to 0.07 μg/mL, 48 hr, listed as ITZA*): 0.3 µg/mL (≈ 0.000425 mM)
MIC ([3]; tested range 75 μg/mL to 0.07 μg/mL, read out at 48 hrs, first experiment): 0.6 µg/mL (≈ 0.00085 mM)
solubility ([4]; 2M citric acid, aqueous buffer, thermodynamic from solid, in 2M citric acid, read-out: Maximum solubility): 3220 µg/mL (≈ 4.56 mM)
solubility ([4]; 6N HCl, aqueous buffer, thermodynamic from solid, in 6N HCl, read-out: Maximum solubility): 7410 µg/mL (≈ 10.5 mM)
solubility ([4]; 25% acetic acid, aqueous with cosolvent or surfactant or cyclodextrin, thermodynamic from solid, in 25% Acetic acid, read-out: Maximum solubility): 300 µg/mL (≈ 0.425 mM)
solubility ([4]; 50% acetic acid, aqueous with cosolvent or surfactant or cyclodextrin, thermodynamic from solid, in 50% Acetic acid, read-out: Maximum solubility): 12900 µg/mL (≈ 18.3 mM)
solubility ([4]; Intralipid, oil or lipid, thermodynamic from solid, in Intralipid, read-out: Maximum solubility): 150 µg/mL (≈ 0.213 mM)
solubility ([4]; PEG 200, organic solvent or mixture, thermodynamic from solid, in PEG 200, read-out: Maximum solubility): 1450 µg/mL (≈ 2.05 mM)
solubility ([4]; PEG 300, organic solvent or mixture, thermodynamic from solid, in PEG 300, read-out: Maximum solubility): 1810 µg/mL (≈ 2.57 mM)
solubility ([4]; PEG 400, organic solvent or mixture, thermodynamic from solid, in PEG 400, read-out: Maximum solubility): 2510 µg/mL (≈ 3.56 mM)
solubility ([4]; acetic acid, organic solvent or mixture, thermodynamic from solid, in Acetic acid, read-out: Maximum solubility): 144000 µg/mL (≈ 205 mM)
solubility ([4]; benzyl alcohol, organic solvent or mixture, thermodynamic from solid, in Benzyl alcohol, read-out: Maximum solubility): > 128000 µg/mL
Solubility (in words) ([4]; diluted acetic acid, H2O, Normal saline, 5% Dextrose, Polyoxyethylated castor oil, Propylene glycol, 2 M citric acid, Ethanol, HCl, PEG400, Intralipid): insignificant solubility
solubility ([4]; ethanol, organic solvent or mixture, thermodynamic from solid, in Ethanol, read-out: Maximum solubility): 410 µg/mL (≈ 0.581 mM)
Maximum solubility ([4]; in 10% Acetic acid): 860 µg/mL
Maximum solubility ([4]; in Polyoxyethylated castor oil): 890 µg/mL
solubility ([4]; normal saline, saline or isotonic, thermodynamic from solid, in Normal saline, read-out: Maximum solubility): 480 µg/mL (≈ 0.68 mM)
solubility ([4]; organic solvent or mixture, thermodynamic from solid, benzyl alcohol containing solvent H3, room temp, read-out: Maximum solubility): ~31400 µg/mL (≈ 44.5 mM)
solubility thermodynamic at 1 h ([4]; organic solvent or mixture, thermodynamic from solid, Benzyl alcohol): > 100000 µg/mL
solubility thermodynamic at 1 h ([4]; organic solvent or mixture, thermodynamic from solid, pure (glacial) acetic acid): > 100000 µg/mL
solubility ([4]; propylene glycol, organic solvent or mixture, thermodynamic from solid, in Propylene glycol, read-out: Maximum solubility): 140 µg/mL (≈ 0.198 mM)
solubility ([4]; solvent B (with Tween 80), aqueous with cosolvent or surfactant or cyclodextrin, thermodynamic from solid, solvent B (with Tween 80), read-out: Maximum solubility): 29000 µg/mL (≈ 41.1 mM)
solubility at 30 min ([4]; solvent H3D (no benzyl alcohol), organic solvent or mixture, thermodynamic from solid, solvent H3D (no benzyl alcohol), single determination, read-out: Azole solubility, [Drug] mg/mL): 19.1 mg/mL (≈ 27.1 mM)
solubility at 30 min ([4]; solvent H3D (no benzyl alcohol), organic solvent or mixture, thermodynamic from solid, solvent H3D (no benzyl alcohol), read-out: Azole solubility, Average mg/mL): 19 mg/mL (≈ 26.9 mM)
Azole solubility, [Drug] mg/mL ([4]; solvent H3D (no benzyl alcohol), single determination): 18.9 mg/mL
solubility at 30 min ([4]; solvent H3G (no benzyl alcohol), organic solvent or mixture, thermodynamic from solid, solvent H3G (no benzyl alcohol), single determination, read-out: Azole solubility, [Drug] mg/mL): 19.2 mg/mL (≈ 27.2 mM)
solubility at 30 min ([4]; solvent H3G (no benzyl alcohol), organic solvent or mixture, thermodynamic from solid, solvent H3G (no benzyl alcohol), read-out: Azole solubility, Average mg/mL): 19.3 mg/mL (≈ 27.4 mM)
Azole solubility, [Drug] mg/mL ([4]; solvent H3G (no benzyl alcohol), single determination): 19.4 mg/mL
solubility ([4]; solvent J1, organic solvent or mixture, thermodynamic from solid, solvent J1, read-out: Solubility): 18100 µg/mL (≈ 25.7 mM)
solubility ([4]; solvent J2): 15990 µg/mL (≈ 22.7 mM)
solubility ([4]; solvent J3): 10110 µg/mL (≈ 14.3 mM)
solubility ([4]; solvent J4, organic solvent or mixture, thermodynamic from solid, solvent J4, read-out: Solubility): 6090 µg/mL (≈ 8.63 mM)
solubility ([4]; solvent J5, organic solvent or mixture, thermodynamic from solid, solvent J5, read-out: Solubility): 3540 µg/mL (≈ 5.02 mM)
solubility ([4]; solvent K, organic solvent or mixture, thermodynamic from solid, solvent K, RT, read-out: Maximum solubility): 11100 µg/mL (≈ 15.7 mM)
Maximum solubility ([4]; solvent L): 5000 µg/mL
Stability (% remaining) ([5]; 2 mg/mL, normal saline as final dilution solution, at least 24 hours at RT): more than 90%
stability of ITZA ([5]; H3D/5% dex., day 3): 108%
stability of ITZA ([5]; H3D/sal., day 4): 102%
stability of ITZA ([5]; H3G/10% dex., day 1): 102%
Stability (%) ([5]; parent solvent H3, approximately 4 mg/mL, room temperature, 48 hrs): 96%
Stability (%) ([5]; parent solvent H3, approximately 4 mg/mL, room temperature, 7 days (1 w)): 91%
Stability (%) ([5]; parent solvent H3, approximately 4 mg/mL, room temperature, 9 days): 84%
Stability (%) ([5]; parent solvent H3, approximately 4 mg/mL, room temperature, 18 days): 80%
Stability (%) ([5]; solvent H3, approximately 4 mg/mL, 40° C., 72 hr): 76%
Stability (%) ([5]; solvent H3, approximately 4 mg/mL, 40° C., 10 days): 59%
Stability (%) ([5]; solvent H3, approximately 4 mg/mL, 40° C., 11 days): 58%
Stability (%) ([5]; solvent H3, approximately 4 mg/mL, 40° C., time 0): 100%
Stability (%) ([5]; solvent H3/normal saline (1:1), approximately 2.0 mg/mL, RT, 6 hrs): 101%
time plasma concentrations remain in the fungi-toxic range [6]: in excess of one hour
